Experimental data published in patent publication US5260257A, “Thermal transfer sheet” (Dai Nippon Printing Co., Ltd., priority 1991, dated 1993).

Assay: light fastness test (xenon fadeometer, percentage fading)
Format: physicochemical
Conditions: 70 kJ/m^2
Procedure: The light fastness test was conducted as follows.
Irradiation was conducted by means of a xenon fadeometer Ci35A (manufactured by Atlas) under conditions of a black panel temperature of 50° C. and an integrating irradiation energy of 70 kJ/m^2.
The percentage fading was determined from a density change around an initial density of 1.0 according to the following equation.
Percentage fading=(1-I/I0)×100 (%)
I=optical density after irradiation; and
I0 =optical density before irradiation.
.largecircle.: less than 20% in the percentage fading
X : 20% or more in the percentage fading

[1] = Table B2, dyes of Table B1, 50° C.
[2] = Table B3, Comparative Examples B1-B6, 50° C.
[3] = Table A2, dyes of Table A1, 50° C.
[4] = Table C2, dyes of Table C1, 50° C.
[5] = Table C (C3), Comparative Examples C1-C6, 50° C.
[6] = Table A3, Comparative Examples A1-A6, 50° C.

| Structure (SMILES) | Light fastness [1] | Light fastness [4] | further results |
| --- | --- | --- | --- |
| CCN(CCC#N)c1ccc(N=C2C=C(NC(=O)C3CC=CC3)C(=O)C(Cl)=C2C)c(NS(C)(=O)=O)c1 [Dye No. 13 in Table B1] | .largecircle. (less than 20% in the percentage fading) |  |  |
| CCN(CC)c1ccc(N=C2C=C(NC(=O)c3ccccc3)C(=O)C(Cl)=C2C)c(C)c1 [Comparative Example B6, reference compound] |  |  | Light fastness [2]: .largecircle. (less than 20% in the percentage fading) |
| CCN(CC)c1ccc(N=C2C=C(NC(=O)C3CC=CCC3)C(=O)C(Cl)=C2C)c(NC(C)=O)c1 (stereo not shown) [Dye No. 6 in Table B1] | .largecircle. (less than 20% in the percentage fading) |  |  |
| CCN(c1ccccc1)c1ccc(N=C2C=C(NC(=O)C3=CCCC3)C(=O)C=C2NC(=O)NC)c(Cl)c1 [Dye No. 17 in Table B1] | .largecircle. (less than 20% in the percentage fading) |  |  |
| CCN(c1ccccc1)c1ccc(N=C2C=C(NC(=O)C3CC=CC3)C(=O)C=C2NC(=O)NC)c(Cl)c1 [Dye No. 15 in Table B1] | .largecircle. (less than 20% in the percentage fading) |  |  |
| CCN(CCOC)c1ccc(N=C2C=C(NC(=O)c3ccsc3)C(=O)C(Cl)=C2C)c(NC(C)=O)c1 [compound 22] |  |  | Light fastness [3]: .largecircle. (less than 20% in the percentage fading) |
| CCN(CCOC)c1ccc(N=C2C=C(NC(=O)C3=CCC=CC3)C(=O)C=C2NC(C)=O)c(NC(C)=O)c1 [Dye No. 19 in Table B1] | .largecircle. (less than 20% in the percentage fading) |  |  |
| CCOc1cc(N(CC)CC)ccc1N=C1C=CC(=O)C(NC(=O)C2CC3C=CC2C3)=C1 (stereo not shown) [Dye No. 5 in Table C1] |  | .largecircle. (less than 20% in the percentage fading) |  |
| CCOc1cc(N(CC)CC)ccc1N=C1C=CC(=O)C(NC(=O)C2CC=CCC2)=C1 (stereo not shown) [Dye No. 4 in Table B1] | .largecircle. (less than 20% in the percentage fading) |  |  |
| CCN(CC)c1ccc(N=C2C=C(NC(=O)C3CC=CCC3)C(=O)C(Cl)=C2C)c(C)c1 (stereo not shown) [Dye No. 1 in Table B1] | .largecircle. (less than 20% in the percentage fading) |  |  |
| CCN(CC)c1ccc(N=C2C=C(NC(=O)C3CCCC3)C(=O)C(Cl)=C2C)cc1 [compound 17] |  |  | Light fastness [3]: .largecircle. (less than 20% in the percentage fading) |
| CCN(CCO)c1ccc(N=C2C=C(NC(=O)C3CC=CCC3)C(=O)C(Cl)=C2C)c(C)c1 (stereo not shown) [Dye No. 2 in Table B1] | .largecircle. (less than 20% in the percentage fading) |  |  |
| CCN(CC)c1ccc(N=C2C=CC(=O)C(NC(=O)C3CC4C=CC3C4)=C2)c(C)c1 (stereo not shown) [Dye No. 2 in Table C1] |  | .largecircle. (less than 20% in the percentage fading) |  |
| CCN(CC)c1ccc(N=C2C=C(NC(=O)C3CC3)C(=O)C=C2NC(C)=O)c(C)c1 [compound 3] |  |  | Light fastness [3]: .largecircle. (less than 20% in the percentage fading) |
| CCN(CC)c1ccc(N=C2C=C(NC(=O)C3CC4C=CC3C4)C(=O)C(Cl)=C2C)c(C)c1 (stereo not shown) [Dye No. 1 in Table C1] |  | .largecircle. (less than 20% in the percentage fading) |  |
| CCN(CC)c1ccc(N=C2C=C(NC(=O)C3CC=CCC3)C(=O)C=C2NC(C)=O)c(C)c1 (stereo not shown) [Dye No. 3 in Table B1] | .largecircle. (less than 20% in the percentage fading) |  |  |
| CCN(CC)c1ccc(N=C2C=C(NC(=O)c3ccccc3)C(=O)C(Cl)=C2C)c(C)c1 [Comparative Example C6, reference compound] |  |  | Light fastness [5]: .largecircle. (less than 20% in the percentage fading) |
| CCC1=C(Cl)C(=O)C(NC(=O)C2CC=CCC2)=CC1=Nc1ccc(N(CC)CC)cc1C (stereo not shown) [Dye No. 5 in Table B1] | .largecircle. (less than 20% in the percentage fading) |  |  |
| CCN(Cc1ccccc1)c1ccc(N=C2C=C(NC(=O)C3=CC4C=CC3C4)C(=O)C=C2NC(C)=O)cc1 (stereo not shown) [Dye No. 13 in Table C1] |  | .largecircle. (less than 20% in the percentage fading) |  |
| CCN(CCCl)c1ccc(N=C2C=C(NC(=O)C3CC=CCC3)C(=O)C(Cl)=C2C)c(NC(=O)NC)c1 (stereo not shown) [Dye No. 7 in Table B1] | .largecircle. (less than 20% in the percentage fading) |  |  |
| CCN(CC)c1ccc(N=C2C=CC(=O)C(NC(=O)C3CC=CCC3)=C2)c(C)c1 (stereo not shown) [compound 23] | .largecircle. (less than 20% in the percentage fading) |  |  |
| CCN(CC)c1ccc(N=C2C=C(NC(=O)C3=CCC=CC3)C(=O)C=C2NC(C)=O)c(C)c1 [Dye No. 20 in Table B1] | .largecircle. (less than 20% in the percentage fading) |  |  |
| CCOc1cc(N(CC)CC)ccc1N=C1C=CC(=O)C(NC(=O)C2C=CCCC2)=C1 (stereo not shown) [Dye No. 8 in Table B1] | .largecircle. (less than 20% in the percentage fading) |  |  |
| CCN(CC)c1ccc(N=C2C=CC(=O)C(NC(=O)C3CC3)=C2)c(NC(C)=O)c1 [compound 9] |  |  | Light fastness [3]: .largecircle. (less than 20% in the percentage fading) |

| Structure (SMILES) | Light fastness [1] | Light fastness [4] | further results |
| --- | --- | --- | --- |
| CCN(CC)c1ccc(N=C2C=C(NC(=O)C3CCCC3)C(=O)C(Cl)=C2C)c(NC(C)=O)c1 [compound 14] |  |  | Light fastness [3]: .largecircle. (less than 20% in the percentage fading) |
| CCN(Cc1ccccc1)c1ccc(N=C2C=C(NC(=O)C3CCCC3)C(=O)C=C2NC(C)=O)c(C)c1 [compound 13] |  |  | Light fastness [3]: .largecircle. (less than 20% in the percentage fading) |
| CCN(CC)c1ccc(N=C2C=C(NC(=O)c3ccsc3)C(=O)C(Cl)=C2C)c(C)c1 [compound 19] |  |  | Light fastness [3]: .largecircle. (less than 20% in the percentage fading) |
| CNc1ccc(N)c2c1C(=O)c1ccccc1C2=O [Comp. Ex. A5, C.I. Disperse Violet 4, reference compound] |  |  | Light fastness [6]: Δ; Light fastness [2]: Δ; Light fastness [5]: Δ |
| CCOc1cc(N(CC)CC)c(OCC)cc1N=C1C=C(NC(=O)C2CC3C=C(C)C2C3)C(=O)C(Cl)=C1C (stereo not shown) [Dye No. 19 in Table C1] |  | .largecircle. (less than 20% in the percentage fading) |  |
| CCN(CCNS(C)(=O)=O)c1ccc(N=C2C=C(NC(=O)C3CC=CCC3)C(=O)C(Cl)=C2C)c(C)c1 (stereo not shown) [compound 24] | .largecircle. (less than 20% in the percentage fading) |  |  |
| CCN(CC)c1ccc(N=C2C=C(NC(=O)C3CC4C=CC3S4)C(=O)C=C2NC(C)=O)c(C)c1 (stereo not shown) [Dye No. 23 in Table C1] |  | .largecircle. (less than 20% in the percentage fading) |  |
| CCN(CC)c1ccc(N=C2C=C(NC(=O)c3ccsc3)C(=O)C=C2NC(C)=O)c(C)c1 [compound 21] |  |  | Light fastness [3]: .largecircle. (less than 20% in the percentage fading) |
| CCN(c1ccccc1)c1ccc(N=C2C=C(NC(=O)C3=CC4C=CC3C4)C(=O)C=C2NC(=O)NC)c(Cl)c1 (stereo not shown) [Dye No. 15 in Table C1] |  | .largecircle. (less than 20% in the percentage fading) |  |
| CCN(CC)c1ccc(N=C2C=C(NC(=O)C3CC4C=C(C)C3C4)C(=O)C=C2NC(C)=O)c(C)c1 (stereo not shown) [Dye No. 20 in Table C1] |  | .largecircle. (less than 20% in the percentage fading) |  |
| CCOc1cc(N(CC)CCO)ccc1N=C1C=C(NC(=O)C2CC3C=CC2C3)C(=O)C=C1NC(C)=O (stereo not shown) [Dye No. 10 in Table C1] |  | .largecircle. (less than 20% in the percentage fading) |  |
| CCN(CCC#N)c1ccc(N=C2C=C(NC(=O)C3=CC4C=CC3C4)C(=O)C(Cl)=C2C)c(NS(C)(=O)=O)c1 (stereo not shown) [Dye No. 14 in Table C1] |  | .largecircle. (less than 20% in the percentage fading) |  |
| CCN(CCO)c1ccc(N=C2C=C(NC(=O)C3CC3)C(=O)C(Cl)=C2C)c(C)c1 [compound 2] |  |  | Light fastness [3]: .largecircle. (less than 20% in the percentage fading) |
| CC(C)Nc1ccc(NC(C)C)c2c1C(=O)c1ccccc1C2=O [Comp. Ex. A2, C.I. Disperse Blue 134, reference compound] |  |  | Light fastness [6]: Δ; Light fastness [2]: Δ; Light fastness [5]: Δ |
| CCN(CCCl)c1ccc(N=C2C=C(NC(=O)C3CCCC3)C(=O)C=C2NC(C)=O)c(NC(=O)NC)c1 [compound 18] |  |  | Light fastness [3]: .largecircle. (less than 20% in the percentage fading) |
| CCN(CCCl)c1ccc(N=C2C=C(NC(=O)C3CC4C=CC3C4)C(=O)C(Cl)=C2C)c(NC(=O)NC)c1 (stereo not shown) [Dye No. 9 in Table C1] |  | .largecircle. (less than 20% in the percentage fading) |  |
| CCN(CC)c1ccc(N=C2C=C(NC(=O)C3CC3)C(=O)C(Cl)=C2C)cc1 [compound 11] |  |  | Light fastness [3]: .largecircle. (less than 20% in the percentage fading) |
| CCN(CC)c1ccc(N=C2C=C(NC(=O)C3CC4C=CC3C4)C(=O)C(Cl)=C2C)cc1 (stereo not shown) [Dye No. 6 in Table C1] |  | .largecircle. (less than 20% in the percentage fading) |  |
| CCN(CC)c1ccc(N=C2C=C(NC(=O)C3CC4C=CC3O4)C(=O)C(Cl)=C2C)c(C)c1 (stereo not shown) [Dye No. 21 in Table C1] |  | .largecircle. (less than 20% in the percentage fading) |  |
| CCN(CCC#N)c1ccc(N=C2C=C(NC(=O)C3CC3)C(=O)C=C2NS(C)(=O)=O)c(NC(C)=O)c1 [compound 7] |  |  | Light fastness [3]: .largecircle. (less than 20% in the percentage fading) |
| CCN(CCNS(C)(=O)=O)c1ccc(N=C2C=C(NC(=O)C3CC=CC3)C(=O)C=C2NS(C)(=O)=O)c(C)c1 [Dye No. 14 in Table B1] | .largecircle. (less than 20% in the percentage fading) |  |  |
| CCN(CC)c1ccc(N=C2C=C(NC(=O)C3CC4C=C(C)C3C4)C(=O)C(Cl)=C2C)c(C)c1 (stereo not shown) [Dye No. 18 in Table C1] |  | .largecircle. (less than 20% in the percentage fading) |  |
| CCN(CC)c1ccc(N=C2C=C(NC(=O)C3=CC4C=CC3C4)C(=O)C(Cl)=C2C)c(C)c1 (stereo not shown) [Dye No. 11 in Table C1] |  | .largecircle. (less than 20% in the percentage fading) |  |
| CCN(CCO)c1ccc(N=C2C=C(NC(=O)C3CC4C=CC3C4)C(=O)C(Cl)=C2C)c(C)c1 (stereo not shown) [Dye No. 3 in Table C1] |  | .largecircle. (less than 20% in the percentage fading) |  |
